Experimental data: patent US10159656B2, “Methods for use of epinephrine fine particles for treatment of conditions responsive to epinephrine” (NOVA SOUTHEASTERN UNIVERSITY, priority 2013, dated 2018)

Assays:
[1] = one cycle at 30,000 Psi
Protocol: The processed EpiBit were tested for stability and removal of isopropyl alcohol using FT-IR spectrometer, spectrum 100 (PerkinElmer, Waltham, Mass.) scanned from 4000-650 cm^−1.

[2] = one cycle at 30,000 Psi; remark: listed apart in the source
Protocol: Also, the processed EpiBit were tested for purity, stability, and crystallinity changes using Differential Scanning calorimetry (DSC) 4000 (PerkinElmer, Waltham, Mass.) that was calibrated using an indium standard and heated from 30 to 300° C. at rate of 10° C./min and with a nitrogen purge of 20 mL/min.

[3] = after processing, one cycle at 30,000 Psi
[4] = Protocol: The average particles size (by volume) of EpiBit before processing was measured using laser diffraction technique using Mastersizer (Malvern Instruments Inc, Westborough, Mass.).
[5] = EpiBit before processing, by volume, n=6, text
[6] = EpiBit before processing, by volume, listed as EpiBit crystals before processing

SMILES: CNC[C@H](O)c1ccc(O)c(O)c1.O=C(O)C(O)C(O)C(=O)O [EpiBit After Processing, epinephrine bitartrate microcrystals]
- degradation after processing (FT-IR spectra before and after) [1]: no evidence of EpiBit degradation after processing
- degradation or crystallinity change after processing (DSC) [2]: no evidence of EpiBit degradation or crystallinity change after processing
- particles size distribution by intensity ([3]; n=3): 2.4±0.4 μm
- particles size distribution by volume ([3]; n=3): 2.5±0.4 μm
- Z-potential ([3]; listed as EpiBit crystals after processing): −4.5±1.4 mV

SMILES: CNC[C@H](O)c1ccc(O)c(O)c1.O=C(O)C(O)C(O)C(=O)O [EpiBit Before Processing, (−)-Epinephrine (+) bitartrate]
- 10th percentile (Dv0.1) particle size [4, 5]: 39.8±3.0 nm
- median (Dv0.5) particle size [4, 5]: 113.6±9.1 nm
- D (4, 3) mean volume particle size [4, 6]: 131.8±10.5 μm
- D(0.9) particle size [4, 6]: 254.8±20.1 μm
- reduction of particles size of EpiBit crystals ([4]; after versus before processing): up to 55 folds
